The values below come from ChEMBL document CHEMBL3044753, “Polyamines May Modulate Both G Protein-Coupled Receptors and G Proteins” (Med Chem Res, 2004).

What all share (type): functional, tissue-based
Assay [1] deals with Left cardiac atrium. In words: Negative ionotropic activity in electrically-paced Cavia porcellus (guinea pig) left atrium measured after 60 min by isometric transducer analysis in absence of benextramine/4-DAMP mustard. To be noted: 1 h.
For assay [2], the system named is Right cardiac atrium. In words: Negative […] activity in electrically-paced Cavia porcellus (guinea pig) right atrium assessed as effect on force measured after 60 min by isometric transducer analysis in presence of benextramine/4-DAMP mustard. Particulars: 1 h.
In assay [3] the test system is Left cardiac atrium. In words: Negative ionotropic activity in electrically-paced Cavia porcellus (guinea pig) left atrium measured after 60 min by isometric transducer analysis in presence of benextramine/4-DAMP mustard. Particulars: 1 h.
For assay [4], the system named is Right cardiac atrium. In words: Negative […] activity in electrically-paced Cavia porcellus (guinea pig) right atrium assessed as effect on force measured after 60 min by isometric transducer analysis in absence of benextramine/4-DAMP mustard. To be noted: 1 h.
Assay [5] deals with Left cardiac atrium. In words: Negative ionotropic activity in electrically-paced Cavia porcellus (guinea pig) left atrium measured immediately by isometric transducer analysis in absence of benzalkonium/prazosin.
Assay [6] concerns Right cardiac atrium. In words: Negative ionotropic activity in electrically-paced Cavia porcellus (guinea pig) right atrium assessed as effect on force measured immediately by isometric transducer analysis in absence of benzalkonium/prazosin.

Broadly, the EC50 is the midpoint of the concentration-response curve. Turning to `CCCCCCCCCCCCNC(=O)[C@@H](N)CCCCN` [N-DODECYL LYSINE AMIDE], the EC50 in the assay with Left cardiac atrium [1] is 0.417 nM; in the assay on Right cardiac atrium [2], 0.282 nM; in the assay with Left cardiac atrium [3] it was 0.363 nM; in the assay on Right cardiac atrium [4], 0.417 nM.
With `C#CCOC(=O)C1=CCCN(C)C1` [ARECAIDINE PROPARGYL ESTER], the EC50 with Left cardiac atrium [5] was 4.57 nM; in the assay with Right cardiac atrium [6], 1.7 nM.
